Reference: patent US11179415B1 (priority 2020, dated 2021)
Where two headings read alike, the source gives them in different places.

Assays:
[1] = mouse; in drinking water up to several months; doses as high as 1000 mg/liter (1000 ppm or 0.1%); cited from earlier work
[2] = test system: human Coronavirus; details: BASF Aseptrol Label, EPA Registration Number 70060-19; cited from earlier work
[3] = test system: common cold; assay: inventor's self-use of CLO2 to prevent the common cold; format: in vivo, human; details: 5 ppm CLO2 nasal drops only, several drops per nostril 2 times per day, 3 days from prodromal period; one person
[4] = chicken; in drinking water up to several months; doses as high as 1000 mg/liter (1000 ppm or 0.1%); cited from earlier work
[5] = test system: Coronavirus SARS CoV-2; details: Fact Sheet, National Agricultural Biosecurity Center, Kansas State University; cited from earlier work
[6] = man; daily ingestion of 500 ml CLO2 at 5 ppm; cited from earlier work
[7] = rat; in drinking water up to several months; doses as high as 1000 mg/liter (1000 ppm or 0.1%); cited from earlier work
[8] = test system: SARS CoV-2; details: in vivo
[9] = OSHA, cited from earlier work

SMILES	methemoglobin concentrations [1]	efficacy against human Coronavirus [2]	development of a common cold [3]	methemoglobin concentrations [4]	virucidal activity against SARS CoV-2 [5]	tolerability of daily ingestion [6]	methemoglobin concentrations [7]	lung irritation after inhalation of aerosol fog [8]	symptoms after contracting SARS CoV-2 [8]	concentration safe for an 8-hour exposure ([9]; 8-hour exposure) [ppm]	concentration safe for short-time exposure limit (STEL) ([9]; STEL of 15 minutes) [ppm]
[O][Cl+][O-] [CLO2, chlorine dioxide]	no significant increases	effective against human Coronavirus	a cold never developed	no significant increases	kills the Coronavirus SARS CoV-2	safely tolerated	no significant increases	no resulting lung irritation	only little to slight symptoms	0.1	0.3
[O-][Cl+2]([O-])O [CLO3]	no significant increases			no significant increases			no significant increases				
